From publication PMC2897236 (Anesthesia and analgesia, 2009)
Entries after “also recorded” stand apart in the source; their conditions may differ. Read-outs that look alike come from different tables or passages of the source.

Legend:
[1] = read-out: Anesthetic EC50; anesthetizing concentration in animals; cited from earlier work
[2] = target: T1, GLIC (Gloeobacter violaceus, UniProt Q7NDN8); conditions: for Hill Coefficient: Hill (one-site) fit of inhibition of GLIC currents, mean ± se; for modulation of GLIC: at anesthetizing concentrations
T1 sequence (Q7NDN8 44-359): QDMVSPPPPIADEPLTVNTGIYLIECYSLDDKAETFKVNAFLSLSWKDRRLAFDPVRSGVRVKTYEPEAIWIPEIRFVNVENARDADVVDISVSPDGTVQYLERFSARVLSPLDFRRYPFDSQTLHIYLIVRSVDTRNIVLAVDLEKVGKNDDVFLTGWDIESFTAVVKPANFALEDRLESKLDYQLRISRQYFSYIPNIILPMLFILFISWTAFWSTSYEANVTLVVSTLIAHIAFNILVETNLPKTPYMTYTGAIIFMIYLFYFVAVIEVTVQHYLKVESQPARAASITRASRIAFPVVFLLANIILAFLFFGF

[3] = tested on: 5HT3 receptors; conditions: cited from earlier work
[4] = tested on: α4β2 nACh receptors; conditions: nitrous oxide at 0.6 atm; cited from earlier work
[5] = tested on: α4β4 nACh receptors; conditions: nitrous oxide at 0.6 atm; cited from earlier work
[6] = cited from earlier work
[7] = tested on: glycine receptors; conditions: cited from earlier work
[8] = tested on: GABA receptors; conditions: nitrous oxide at 0.6 atm; cited from earlier work
[9] = tested on: 5HT3A receptors; conditions: 1 MAC of halothane; cited from earlier work
[10] = tested on: GABAA receptors; conditions: modulation of GABAA receptors; cited from earlier work
[11] = tested on: α4β4 neuronal nicotinic acetylcholine receptors; conditions: 75mM ethanol; cited from earlier work
[12] = tested on: α4β2 neuronal nicotinic acetylcholine receptors; conditions: cited from earlier work
[13] = tested on: GABAA receptors containing a δ subunit; conditions: cited from earlier work
[14] = tested on: α3β2 neuronal nicotinic acetylcholine receptors; conditions: cited from earlier work
[15] = tested on: α3 β4 neuronal nicotinic acetylcholine receptors; conditions: cited from earlier work
[16] = tested on: α2β2 neuronal nicotinic acetylcholine receptors; conditions: 75mM ethanol; cited from earlier work
[17] = tested on: α2 β4 neuronal nicotinic acetylcholine receptors; conditions: cited from earlier work
[18] = tested on: homomeric α7 receptors; conditions: 25–50 mM ethanol, response is variable; cited from earlier work
[19] = target: glycine α1 receptors; conditions: enhancement of glycine currents; cited from earlier work
[20] = tested on: α4 β2 nACh receptors; conditions: inhibition; cited from earlier work
[21] = target: glycine α1 β receptors; conditions: enhancement of glycine currents; cited from earlier work
[22] = IC50_1, two-site model, apparent affinity for site 1
[23] = IC50_2, two-site model, apparent affinity for site 2

Q: Which results are given for `FCOC(C(F)(F)F)C(F)(F)F` [Sevoflurane]?
A: EC50 [1]: 330 µM; concentration at which inhibition of GLIC was produced [2]: 1 % of MAC; effect on currents through GLIC (current tracing) ([2]; 0.3 mM sevoflurane): inhibit currents through GLIC; Hill Coefficient [2]: 0.27 ± 0.1; Hill Coefficient ([2]; listed as sevoflurane): 0.27; effect on currents through 5HT3 receptors ([3]; at MAC): inhibiting rather than enhancing currents

Q: Which EC50 [1] does the source give for `FC(F)OC(F)C(F)(F)F` (stereo not drawn) [Desflurane] here?
A: Its EC50 is 560 µM.

Q: What about the “concentration at which inhibition of GLIC was produced” value (from here on “concentration at which inhibition”) [2] of the same molecule?
A: The value was 0.01 % of MAC.

Q: And the “effect on currents through GLIC (current tracing)” value (“effect on currents through GLIC” below) ([2]; 0.5 mM desflurane)?
A: Its value is “inhibit currents through GLIC”.

Q: What about the “Hill Coefficient” value [2] of the same molecule?
A: The value was 0.25 ± 0.05.

Q: And the “Hill Coefficient” value ([2]; listed as desflurane)?
A: The value was 0.25.

Q: And the IC50 [2, 22]?
A: Its IC50 is 0.01 µM.

Q: What about the IC50 [2, 23] of the same molecule?
A: The IC50 was 300 µM.

Q: With `[N-]=[N+]=O` [Nitrous Oxide] as the molecule, how does the inhibition [4] read?
A: Its inhibition is 39%.

Q: What about the inhibition [5] of the same molecule?
A: Its inhibition is 7%.

Q: And the “modulation of GLIC” value [2]?
A: Its value is “did not modulate GLIC”.

Q: What about the “Anesthetic EC50” value ([6]; MAC in humans) of the same molecule?
A: The value was 1.04 atm ([7]).

Q: And the “potentiation of glycine receptor function” value ([7]; nitrous oxide at 0.6 atm)?
A: The value was “approximately 30%”.

Q: And the inhibition ([3]; nitrous oxide at 0.6 atm)?
A: Its inhibition is “approximately 15%”.

Q: What about the “potentiation of GABA receptor function” value [8] of the same molecule?
A: Its value is about 20%.

Q: Which EC50 [1] does the source give for `FC(F)(F)C(Cl)Br` (stereo not drawn) [Halothane] here?
A: Its EC50 is 230 µM.

Q: And the “potentiation of 5HT3A receptors” value [9]?
A: The value was “approximately 200%”.

Q: What about the “concentration at which inhibition” value [2] of the same molecule?
A: Its value is 1 % of MAC.

Q: What about the “effect on currents through GLIC” value ([2]; 0.25 mM halothane) of the same molecule?
A: The value was “inhibit currents through GLIC”.

Q: What about the “Hill Coefficient” value [2] of the same molecule?
A: The value was 0.27 ± 0.04.

Q: What about the “Hill Coefficient” value ([2]; listed as halothane) of the same molecule?
A: The value was 0.27.

Q: And the IC50 [2, 22]?
A: The IC50 was 0.3 µM.

Q: What about the IC50 [2, 23] of the same molecule?
A: Its IC50 is 1100 µM.

Q: For `CCOC(=O)c1cncn1[C@H](C)c1ccccc1` (single isomer, unassigned) [R isomer], which Hill Coefficient [10] is on record?
A: The Hill Coefficient was 1.9.

Q: What does the source list for `CCO` [Ethanol]?
A: effect on currents [11]: potentiates currents; effect on currents ([12]; 75mM ethanol): potentiates currents; lowest potentiating concentration [13]: 3 mM; effect on GLIC currents ([2]; 200 mM ethanol compared to controls (p > 0.05)): no effect; effect on GLIC currents ([2]; 200 mM ethanol compared to controls (p > 0.05), listed as ethanol): did not modulate channel currents; modulation of GLIC [2]: did not modulate GLIC; sensitivity to ethanol [14]: not sensitive to ethanol; sensitivity to ethanol [15]: not sensitive to ethanol; effect on currents [16]: potentiates currents; effect on currents ([17]; 75mM ethanol): potentiates currents; effect on receptors [18]: inhibits; maximal increase in currents ([3]; ethanol 50 to 200 mM): ≤ 50%

Q: Which EC50 [19] does the source give for `CC(C)c1cccc(C(C)C)c1O` [Propofol] here?
A: The EC50 was 16 µM.

Q: What about the EC50 [1] of the same molecule?
A: Its EC50 is 1.9 µM.

Q: What about the Hill number [20] of the same molecule?
A: Its Hill number is 2.9.

Q: And the IC50 [20]?
A: The IC50 was 19 µM.

Q: What about the “lowest concentration inhibiting currents” value [2] of the same molecule?
A: Its value is 2 % of its anesthetic EC50.

Q: What about the “effect on currents through GLIC” value ([2]; 1 μM propofol) of the same molecule?
A: The value was “inhibit currents through GLIC”.

Q: And the “Hill Coefficient” value [2]?
A: Its value is 0.42 ± 0.08.

Q: What about the “Hill Coefficient” value ([2]; listed as propofol) of the same molecule?
A: The value was 0.42.

Q: What about the EC50 [21] of the same molecule?
A: Its EC50 is 27 µM.

Q: For `CCOC(=O)c1cncn1[C@@H](C)c1ccccc1` (single isomer, unassigned) [S isomer], which Hill Coefficient [10] is on record?
A: Its Hill Coefficient is 2.9.

Q: With `CCOC(=O)c1cncn1[C@H](C)c1ccccc1` [Etomidate] as the molecule, how does the “effect on GLIC currents relative to anesthetic concentrations” value [2] read?
A: The value was “inhibitory only at concentrations above those used to achieve anesthesia”.

Q: What about the “effect on currents through GLIC” value ([2]; 50 μM etomidate) of the same molecule?
A: Its value is “inhibit currents through GLIC”.

Q: And the “Hill Coefficient” value [2]?
A: The value was “not different from 1”.

Q: And the “potentiation of currents through glycine receptors” value ([7]; 300μM etomidate)?
A: The value was 29%.

Q: Which EC50 [1] does the source give for `FC(F)OC(Cl)C(F)(F)F` (stereo not drawn) [Isoflurane] here?
A: The EC50 was 280 µM.

Q: What about the IC50 ([12]; α4β2 isoform) of the same molecule?
A: The IC50 was 82 µM.

Q: And the Hill number [20]?
A: Its Hill number is 1.3.

Q: And the IC50 [20]?
A: The IC50 was 85 µM.

Q: And the “concentration at which inhibition” value [2]?
A: The value was 1 % of MAC.

Q: What about the “effect on currents through GLIC” value ([2]; 0.3 mM isoflurane) of the same molecule?
A: The value was “inhibit currents through GLIC”.

Q: What about the “Hill Coefficient” value [2] of the same molecule?
A: The value was 0.32 ± 0.07.

Q: And the “Hill Coefficient” value ([2]; listed as isoflurane)?
A: The value was 0.32.

Q: What about the IC50 ([15]; α3 β4 isoform) of the same molecule?
A: Its IC50 is 56 µM.

Q: And the IC50 ([17]; α2 β4 isoform)?
A: The IC50 was 25 µM.

Q: What about the “potentiation of 5HT3 receptor function” value ([3]; anesthetic concentration raised to 10 MAC) of the same molecule?
A: The value was over 100%.

Q: What about the “enhancement of 5HT3 receptor function” value ([3]; at MAC) of the same molecule?
A: Its value is “less than 50%”.

Q: For `[Xe]` [Xenon], which “effect on GLIC currents” value ([2]; 0.8 atm xenon) is on record?
A: Its value is “significantly inhibited currents”.

Q: And the “effect on currents through GLIC” value ([2]; 80 % atm xenon)?
A: Its value is “inhibit currents through GLIC”.

Q: What about the “Hill Coefficient” value [2] of the same molecule?
A: Its value is 1.9 ± 0.47.

Q: What about the “Hill Coefficient” value ([2]; listed as xenon) of the same molecule?
A: The value was “not different from 1; also recorded: not significantly different than 1”.

Q: What about the “Anesthetic EC50” value ([6]; MAC of xenon in humans) of the same molecule?
A: Its value is 0.71 atm ([5]).
